Assay results as given in PubChem BioAssay (NCI).
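Cells were grown in 96-well plates and exposed to each compound for 48 hours at five concentrations; endpoints were interpolated linearly between bracketing concentrations, or set to the highest concentration if not reached. The concentration for 50% growth inhibition is given as GI50. TGI marks complete inhibition of growth.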

Legend:
Assay in all cases: growth of human tumour cells (NCI), 48 h
786-0 renal = test system: 786-0 renal
A498 renal = test system: A498 renal
A549 NSCLC = test system: A549 NSCLC
ACHN renal = test system: ACHN renal
BT-549 breast = test system: BT-549 breast
CAKI-1 renal = test system: CAKI-1 renal
CCRF-CEM leukemia = test system: CCRF-CEM leukemia
COLO 205 colon = test system: COLO 205 colon
DU-145 prostate = test system: DU-145 prostate
EKVX NSCLC = test system: EKVX NSCLC
HCC-2998 colon = test system: HCC-2998 colon
HCT-116 colon = test system: HCT-116 colon
HCT-15 colon = test system: HCT-15 colon
HL-60(TB) leukemia = test system: HL-60(TB) leukemia
HOP-62 NSCLC = test system: HOP-62 NSCLC
HOP-92 NSCLC = test system: HOP-92 NSCLC
HS 578T breast = test system: HS 578T breast
HT29 colon = test system: HT29 colon
IGROV1 ovarian = test system: IGROV1 ovarian
K-562 leukemia = test system: K-562 leukemia
KM12 colon = test system: KM12 colon
M14 melanoma = test system: M14 melanoma
MALME-3M melanoma = test system: MALME-3M melanoma
MCF7 breast = test system: MCF7 breast
MDA-MB-231 breast = test system: MDA-MB-231 breast
MDA-MB-435 = test system: MDA-MB-435
MOLT-4 leukemia = test system: MOLT-4 leukemia
NCI-H226 lung = test system: NCI-H226 lung
NCI-H23 lung = test system: NCI-H23 lung
NCI-H460 lung = test system: NCI-H460 lung
NCI/ADR-RES ovarian = test system: NCI/ADR-RES ovarian
OVCAR-3 ovarian = test system: OVCAR-3 ovarian
OVCAR-4 ovarian = test system: OVCAR-4 ovarian
OVCAR-5 ovarian = test system: OVCAR-5 ovarian
OVCAR-8 ovarian = test system: OVCAR-8 ovarian
PC-3 prostate = test system: PC-3 prostate
RPMI-8226 leukemia = test system: RPMI-8226 leukemia
RXF 393 renal = test system: RXF 393 renal
SF-268 CNS = test system: SF-268 CNS
SF-295 CNS = test system: SF-295 CNS
SF-539 CNS = test system: SF-539 CNS
SK-MEL-2 melanoma = test system: SK-MEL-2 melanoma
SK-MEL-28 melanoma = test system: SK-MEL-28 melanoma
SK-MEL-5 melanoma = test system: SK-MEL-5 melanoma
SK-OV-3 ovarian = test system: SK-OV-3 ovarian
SN12C renal = test system: SN12C renal
SNB-19 CNS = test system: SNB-19 CNS
SNB-75 CNS = test system: SNB-75 CNS
SR leukemia = test system: SR leukemia
SW-620 colon = test system: SW-620 colon
T-47D breast = test system: T-47D breast
TK-10 renal = test system: TK-10 renal
U251 CNS = test system: U251 CNS
UACC-257 melanoma = test system: UACC-257 melanoma
UACC-62 melanoma = test system: UACC-62 melanoma
UO-31 renal = test system: UO-31 renal

## C#C[C@]1(O)CC[C@H]2[C@@H]3CC=C4c5sc(Nc6cc(C)cc(C)c6)nc5CC[C@]4(C)[C@H]3CC[C@@]21C
786-0 renal
  GI50: 0.429 µM
  TGI: 2.28 µM
A498 renal
  GI50: 0.791 µM
  TGI: 2.98 µM
A549 NSCLC
  GI50: 4.08 µM
  TGI: 28.5 µM
ACHN renal
  GI50: 3.72 µM
  TGI: 20.5 µM
BT-549 breast
  GI50: 0.556 µM
  TGI: 5.82 µM
CAKI-1 renal
  GI50: 2.69 µM
  TGI: 15 µM
CCRF-CEM leukemia
  GI50: 1.7 µM
  TGI: 8.43 µM
COLO 205 colon
  GI50: 2.42 µM
  TGI: 5.9 µM
DU-145 prostate
  GI50: 4.18 µM
  TGI: 21.8 µM
EKVX NSCLC
  GI50: 3.12 µM
  TGI: 31.3 µM
HCC-2998 colon
  GI50: 5.47 µM
  TGI: 23 µM
HCT-116 colon
  GI50: 1.98 µM
  TGI: 10.1 µM
HCT-15 colon
  GI50: 1.88 µM
  TGI: 5.58 µM
HL-60(TB) leukemia
  GI50: 1.29 µM
  TGI: 5.55 µM
HOP-62 NSCLC
  GI50: 2.55 µM
  TGI: 20.1 µM
HOP-92 NSCLC
  GI50: 3.17 µM
  TGI: 13.6 µM
HS 578T breast
  GI50: 0.526 µM
  TGI: 5.89 µM
HT29 colon
  GI50: 1.65 µM
  TGI: 4.32 µM
IGROV1 ovarian
  GI50: 4.85 µM
  TGI: 60.6 µM
K-562 leukemia
  GI50: 1.58 µM
  TGI: 4.33 µM
KM12 colon
  GI50: 2.6 µM
  TGI: 8.05 µM
M14 melanoma
  GI50: 1.58 µM
  TGI: 6.87 µM
MALME-3M melanoma
  GI50: 1.87 µM
  TGI: 5.6 µM
MCF7 breast
  GI50: 1.61 µM
  TGI: 6.22 µM
MDA-MB-231 breast
  GI50: 2.96 µM
  TGI: 15.1 µM
MDA-MB-435
  GI50: 2.83 µM
  TGI: 12.4 µM
MOLT-4 leukemia
  GI50: 0.555 µM
  TGI: 5.83 µM
NCI-H226 lung
  GI50: 2.29 µM
  TGI: 7.99 µM
NCI-H23 lung
  GI50: 2.87 µM
  TGI: 17 µM
NCI-H460 lung
  GI50: 2.72 µM
  TGI: 13 µM
NCI/ADR-RES ovarian
  GI50: 4.86 µM
  TGI: 45.5 µM
OVCAR-3 ovarian
  GI50: 3.59 µM
  TGI: 16.9 µM
OVCAR-4 ovarian
  GI50: 4.63 µM
  TGI: > 100 µM
OVCAR-5 ovarian
  GI50: 3.69 µM
  TGI: 15.8 µM
OVCAR-8 ovarian
  GI50: 7.08 µM
  TGI: > 100 µM
PC-3 prostate
  GI50: 1.53 µM
  TGI: 11.9 µM
RPMI-8226 leukemia
  GI50: 0.272 µM
  TGI: 0.823 µM
RXF 393 renal
  GI50: 0.142 µM
  TGI: 0.428 µM
SF-268 CNS
  GI50: 2.54 µM
  TGI: 20.2 µM
SF-295 CNS
  GI50: 0.297 µM
  TGI: 0.966 µM
SF-539 CNS
  GI50: 0.392 µM
  TGI: 1.71 µM
SK-MEL-2 melanoma
  GI50: 1.46 µM
  TGI: 10.3 µM
SK-MEL-28 melanoma
  GI50: 1.07 µM
  TGI: 2.95 µM
SK-MEL-5 melanoma
  GI50: 1.65 µM
  TGI: 3.15 µM
SK-OV-3 ovarian
  GI50: 2.23 µM
  TGI: 7.94 µM
SN12C renal
  GI50: 8.38 µM
  TGI: 30.5 µM
SNB-19 CNS
  GI50: 2 µM
  TGI: 11.6 µM
SNB-75 CNS
  GI50: 0.547 µM
  TGI: 7.91 µM
SR leukemia
  GI50: 1.17 µM
  TGI: 5.88 µM
SW-620 colon
  GI50: 2.12 µM
  TGI: 4.89 µM
T-47D breast
  GI50: 3.4 µM
  TGI: 85.8 µM
TK-10 renal
  GI50: 9.87 µM
  TGI: 36.5 µM
U251 CNS
  GI50: 1.09 µM
  TGI: 18.4 µM
UACC-257 melanoma
  GI50: 3.07 µM
  TGI: 21.7 µM
UACC-62 melanoma
  GI50: 1.69 µM
  TGI: 4.1 µM
UO-31 renal
  GI50: 2.72 µM
  TGI: 9.7 µM
